A word on the IC50: it is the point on the concentration scale where inhibition reaches its midpoint.

Holding throughout (type): biochemical
Assay [1] deals with constitutive proteasome β5c subunit (Homo sapiens, UniProt P28074). Briefly: Caliper-based proteasome enzymatic activity assay, β5c. Conditions: human recombinant constitutive proteasome 0.3 nM, FAM peptide substrate 1 μM, rt 3 h.
The target in assay [2] is immunoproteasome LMP2 subunit (Homo sapiens, UniProt P28065). Kind of assay: Caliper-based proteasome enzymatic activity assay, LMP2. Conditions: human recombinant immunoproteasome 0.3 nM, FAM peptide substrate 1 μM, rt 2 h.
In assay [3] the target is immunoproteasome LMP7/B5i subunit (Homo sapiens, UniProt P28062). Briefly: Caliper-based proteasome enzymatic activity assay, LMP7. Conditions: human recombinant immunoproteasome 0.3 nM, FAM peptide substrate 1 μM, rt 3 h.

With `N#CC(=Cc1cccc(OCCC(=O)N[C@@H](Cc2ccccc2)B(O)O)c1)C(=O)NC1CCOCC1` [Example 10, (R)-1-(3-(3-(2-cyano-3-oxo-3-(tetrahydro-2H-pyran-4-ylamino)prop-1-enyl)phenoxy)propanamido)-2-phenylethylboronic Acid], the half-inhibitory concentration (IC50) worked out at 74 nM in assay [1], 970 nM in assay [2] and 5 nM in assay [3].

Take `CC(C)(C)NC(=O)C(C#N)=Cc1cccc(COC(=O)N[C@@H](Cc2ccccc2)B(O)O)c1` [Example 16, (R)-(1-((((3-(3-(tert-butylamino)-2-cyano-3-oxoprop-1-en-1-yl)benzyl)oxy)carbonyl)amino)-2-phenylethyl)boronic Acid]: the IC50 was found to be 3680 nM in assay [1], 3570 nM in assay [2] and 33 nM in assay [3].

For the compound `CN(C(=O)C(C#N)=Cc1cccc(OCCC(=O)N[C@@H](Cc2ccccc2)B(O)O)c1)c1ccccc1` [Example 22, (R)-(1-(3-(3-(2-cyano-3-(methyl(phenyl)amino)-3-oxoprop-1-en-1-yl)phenoxy)propanamido)-2-phenylethyl)boronic Acid], the IC50 was 27 nM in assay [1], 100 nM in assay [2] and 3 nM in assay [3].

In the case of `N#CC(=Cc1cccc(OCCC(=O)N[C@@H](Cc2coc3ccccc23)B(O)O)c1)c1ccccn1` [Example 23, (R)-(2-(benzofuran-3-yl)-1-(3-(3-(2-cyano-2-(pyridin-2-yl)vinyl)phenoxy)propanamido)ethyl)boronic Acid], the concentration for half-maximal inhibition (IC50) in assay [1] was 8 nM; in assay [2], more than 5000 nM; in assay [3] it was 0.8 nM.

As for `CN(C)C(=O)C(C#N)=Cc1cccc(CCCC(=O)N[C@@H](Cc2ccccc2)B(O)O)c1` [Example 24, (R)-(1-(4-(3-(2-cyano-3-(dimethylamino)-3-oxoprop-1-en-1-yl)phenyl)butanamido)-2-phenylethyl)boronic Acid], the half-inhibitory concentration (IC50) in assay [1] was found to be 1930 nM; in assay [2] it was 1890 nM; in assay [3], 12 nM.

Take `N#CC(=Cc1cccc(CCCC(=O)N[C@@H](Cc2ccccc2)B(O)O)c1)n1cncn1` [Example 25, (R)-(1-(4-(3-(2-cyano-2-(1H-1,2,4-triazol-1-yl)vinyl)phenyl)butanamido)-2-phenylethyl)boronic Acid]: the IC50 in assay [1] came to 4150 nM; in assay [2], 3000 nM; in assay [3], 8 nM.

Take `COc1ccc(C=C(C#N)C(=O)N(C)C)cc1OCCC(=O)N[C@@H](Cc1ccccc1)B(O)O` [Example 26, (R)-(1-(3-(5-(2-cyano-3-(dimethylamino)-3-oxoprop-1-en-1-yl)-2-methoxyphenoxy)propanamido)-2-phenylethyl)boronic Acid]: the IC50 in assay [1] was found to be 34 nM; in assay [2], 310 nM; in assay [3], 4 nM.

For `CN(C)C(=O)C(C#N)=Cc1ccc(F)c(OCCC(=O)N[C@@H](Cc2ccccc2)B(O)O)c1` [Example 27, (R)-(1-(3-(5-(2-cyano-3-(dimethylamino)-3-oxoprop-1-en-1-yl)-2-fluorophenoxy)propanamido)-2-phenylethyl)boronic Acid], the values for the IC50 in assay [1], in assay [2] and in assay [3] were 25 nM, 160 nM and 3 nM, respectively.

Regarding `N#CC(=Cc1ccc(F)c(OCCC(=O)N[C@@H](Cc2ccccc2)B(O)O)c1)c1ccccn1` [Example 28, (R)-(1-(3-(5-(2-cyano-2-(pyridin-2-yl)vinyl)-2-fluorophenoxy)propanamido)-2-phenylethyl)boronic Acid], the results for the concentration for half-maximal inhibition (IC50) in assay [1], in assay [2] and in assay [3] were 34 nM, 49 nM and 2 nM, respectively.

With `COc1ccc(C=C(C#N)c2ccccn2)cc1OCCC(=O)N[C@@H](Cc1ccccc1)B(O)O` [Example 29, (R)-(1-(3-(5-(2-cyano-2-(pyridin-2-yl)vinyl)-2-methoxyphenoxy)propanamido)-2-phenylethyl)boronic Acid], the values for the half-maximal inhibitory concentration (IC50) in assay [1], in assay [2] and in assay [3] were 36 nM, 17 nM and 6 nM, respectively.

As to `N#CC(=Cc1cccc(OCCC(=O)N[C@@H](Cc2ccccc2)B(O)O)c1)C(=O)N1CCC1` [Example 30, (R)-(1-(3-(3-(3-(azetidin-1-yl)-2-cyano-3-oxoprop-1-en-1-yl)phenoxy)propanamido)-2-phenylethyl)boronic Acid], the 50% inhibitory concentration (IC50) turned out to be 120 nM in assay [1], 150 nM in assay [2] and 4 nM in assay [3].

`CCNC(=O)C(C#N)=Cc1cccc(OCCC(=O)N[C@@H](Cc2ccccc2)B(O)O)c1` [Example 31, (R)-(1-(3-(3-(2-cyano-3-(ethylamino)-3-oxoprop-1-en-1-yl)phenoxy)propanamido)-2-phenylethyl)boronic Acid]: the IC50 turned out to be 120 nM in assay [1], 270 nM in assay [2] and 4 nM in assay [3].

Take `N#CC(=Cc1cccc(OCCC(=O)N[C@@H](Cc2ccccc2)B(O)O)c1)C(=O)N1CCN(C2COC2)CC1` [Example 32, (R)-(1-(3-(3-(2-cyano-3-(4-(oxetan-3-yl)piperazin-1-yl)-3-oxoprop-1-en-1-yl)phenoxy)propanamido)-2-phenylethyl)boronic Acid]: the IC50 in assay [1] stood at 60 nM; in assay [2], 180 nM; in assay [3] it was 4 nM.

In the case of `N#CC(=Cc1cccc(OCCC(=O)N[C@@H](Cc2ccccc2)B(O)O)c1)c1ccc(C(F)(F)F)cn1` [Example 33, (R)-(1-(3-(3-(2-cyano-2-(5-(trifluoromethyl)pyridin-2-yl)vinyl)phenoxy)propanamido)-2-phenylethyl)boronic Acid], the IC50 in assay [1] came out at 95 nM; in assay [2], 100 nM; in assay [3] it was 5 nM.

In the case of `N#CC(=Cc1cccc(OCCC(=O)N[C@@H](Cc2ccccc2)B(O)O)c1)c1ncccc1F` [Example 34, (R)-(1-(3-(3-(2-cyano-2-(3-fluoropyridin-2-yl)vinyl)phenoxy)propanamido)-2-phenylethyl)boronic Acid], the results for the IC50 in assay [1], in assay [2] and in assay [3] were 80 nM, 120 nM and 8 nM, respectively.

In the case of `N#CC(=Cc1cccc(CCOC(=O)N[C@@H](Cc2ccccc2)B(O)O)c1)c1ccccn1` [Example 36, (R)-(1-(((3-(2-cyano-2-(pyridin-2-yl)vinyl)phenethoxy)carbonyl)amino)-2-phenylethyl)boronic Acid], the values for the 50% inhibitory concentration (IC50) in assay [1], in assay [2] and in assay [3] were 320 nM, 3540 nM and 8 nM, respectively.

As for `CN(C)C(=O)C(C#N)=Cc1cccc(OCCC(=O)N[C@@H](Cc2ccccc2)B(O)O)c1F` [Example 37, (R)-(1-(3-(3-(2-cyano-3-(dimethylamino)-3-oxoprop-1-en-1-yl)-2-fluorophenoxy)propanamido)-2-phenylethyl)boronic Acid], the results for the 50% inhibitory concentration (IC50) in assay [1], in assay [2] and in assay [3] were 495 nM, 223 nM and 16.8 nM, respectively.

With `CN(C)C(=O)C(C#N)=Cc1ccc(Cl)c(OCCC(=O)N[C@@H](Cc2ccccc2)B(O)O)c1Cl` [Example 38, (R)-(1-(3-(2,6-dichloro-3-(2-cyano-3-(dimethylamino)-3-oxoprop-1-en-1-yl)phenoxy)propanamido)-2-phenylethyl)boronic Acid], the figures for the IC50 in assay [1], in assay [2] and in assay [3] were 162 nM, 223 nM and 7.3 nM, respectively.

These data come from patent US12024531B2, “Immunoproteasome inhibitors” (Principia Biopharma Inc., priority 2017, dated 2024).
